Source: patent publication US20260226073A1 (AURIGENE ONCOLOGY LIMITED, priority 2023, published 2026)

Experiments:
[1] = target: T1, human recombinant CBL-b (human Biotin CBL-b recombinant protein a.a. 39-426) (Homo sapiens, UniProt Q13191); assay: Biochemical assay for CBL-b inhibition (ligand displacement TR-FRET); assay type: binding; conditions: 50 nM CBL-b, 0.3 μM Bodipy FL-Probe, read-out: IC50 (CBL-b inhibition, group)
T1 construct: human Biotin CBL-b recombinant protein a.a; 39-426; Biotin (biotinylated); made in house
Outline: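 Ligand-displacement TR-FRET: 0.3 μM Bodipy FL probe competes with compound for 50 nM biotin-CBL-b (aa 39-426) after a 60 min RT compound pre-incubation; terbium-streptavidin detection, 60 min each step. Dose-response sigmoidal fitting gave IC50 and % maximum inhibition.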

[2] = system: NFAT signaling pathway in Jurkat NFAT reporter cells; assay: Jurkat NFAT reporter assay; assay type: cell-based; conditions: Homo sapiens, 30 min with compound, then soluble anti-human CD3/CD28 antibody for 6 hours, luciferase readout, read-out: EC50 (Group)
Outline: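 Results are expressed as fold change relative to stimulated, inhibitor-free cells. Stimulation was 6 h with soluble anti-human CD3/CD28 antibody after a 30-min exposure of 1×10^5 NFAT-RE luciferase Jurkat reporter cells per well to the Cbl-b inhibitor; signal read by Bio-Glo bioluminescence.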

T1 sequence (Q13191 39-426): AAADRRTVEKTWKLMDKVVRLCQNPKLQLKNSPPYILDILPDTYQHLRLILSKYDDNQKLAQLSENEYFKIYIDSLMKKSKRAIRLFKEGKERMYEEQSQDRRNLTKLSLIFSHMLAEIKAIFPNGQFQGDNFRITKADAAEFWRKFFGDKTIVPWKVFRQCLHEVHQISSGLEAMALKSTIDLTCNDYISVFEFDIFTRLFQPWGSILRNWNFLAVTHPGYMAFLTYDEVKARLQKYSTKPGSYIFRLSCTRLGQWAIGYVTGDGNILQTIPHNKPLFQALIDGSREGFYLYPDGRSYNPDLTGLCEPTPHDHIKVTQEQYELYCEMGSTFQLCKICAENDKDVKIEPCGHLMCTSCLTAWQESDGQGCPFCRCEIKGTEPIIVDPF

SMILES | IC50 [1] [nM] | EC50 [2] [nM]
Cc1cc(CNCC2CC2)cc(N2Cc3ccc(-c4ccc(Cl)cc4-c4nncn4C)cc3C2=O)c1 [Compound 280, 6-(4-Chloro-2-(4-methyl-4H-1,2,4-triazol-3-yl)phenyl)-2-(3-(((cyclopropyl-methyl)amino)methyl)-5-methylphenyl)isoindolin-1-one] | < 80 | 300 to 1000
Cc1cc(C(C)NCC2CC(F)(F)C2)cc(N2Cc3ccc(-c4ccc(Cl)cc4-c4nncn4C)cc3C2=O)n1 (centres unmarked) [Compound 281, 6-(4-Chloro-2-(4-methyl-4H-1,2,4-triazol-3-yl)phenyl)-2-(4-(1-(((3,3-difluoro-cyclobutyl)methyl)amino)ethyl)-6-methylpyridin-2-yl)isoindolin-1-one] | < 80 | < 300
Cc1cc(C(C)NCC2CC2)cc(N2Cc3ccc(-c4ccc(F)cc4-c4nncn4C)cc3C2=O)n1 (centres unmarked) [Compound 282, 2-(4-(1-((Cyclopropylmethyl)amino)ethyl)-6-methylpyridin-2-yl)-6-(4-fluoro-2-(4-methyl-4H-1,2,4-triazol-3-yl)phenyl)isoindolin-1-one] | < 80 | < 300
Cc1cc(C(C)(C)NCC2CC2)cc(N2Cc3ccc(-c4ccc(F)cc4-c4nncn4C)cc3C2=O)n1 [Compound 293, 2-(4-(2-((Cyclopropylmethyl)amino)propan-2-yl)-6-methylpyridin-2-yl)-6-(4-fluoro-2-(4-methyl-4H-1,2,4-triazol-3-yl)phenyl)isoindolin-1-one] | < 80 | 300 to 1000
CCn1cnnc1-c1cc(F)ccc1-c1ccc2c(c1)C(=O)N(c1cc(CNCC3CC3)cc(C)n1)C2 [Compound 294, 2-(4-(((Cyclopropylmethyl)amino)methyl)-6-methylpyridin-2-yl)-6-(2-(4-ethyl-4H-1,2,4-triazol-3-yl)-4-fluorophenyl)isoindolin-1-one] | < 80 | 1000 to 10000
CCC(C)NCc1cc(C)nc(N2Cc3ccc(-c4ccc(F)cc4-c4nncn4C)cc3C2=O)c1 (centres unmarked) [Compound 295, 2-(4-((sec-Butylamino)methyl)-6-methylpyridin-2-yl)-6-(4-fluoro-2-(4-methyl-4H-1,2,4-triazol-3-yl)phenyl)isoindolin-1-one] | < 80 | < 300
Cc1cc(CNCC2CC2)cc(N2Cc3c(F)cc(-c4ccc(F)cc4-c4nncn4C)cc3C2=O)n1 [Compound 296] | < 80 | 1000 to 10000
Cc1cc(CNC(C2CC2)C2CC2)cc(N2Cc3ccc(-c4ccc(F)cc4-c4nncn4C)cc3C2=O)n1 [Compound 298, 2-(4-(((Dicyclopropylmethyl)amino)methyl)-6-methylpyridin-2-yl)-6-(4-fluoro-2-(4-methyl-4H-1,2,4-triazol-3-yl)phenyl)isoindolin-1-one] | < 80 | < 300
Cc1cc(CNCCC(C)C)cc(N2Cc3ccc(-c4ccc(F)cc4-c4nncn4C)cc3C2=O)n1 [Compound 300, 6-(4-Fluoro-2-(4-methyl-4H-1,2,4-triazol-3-yl)phenyl)-2-(4-((isopentylamino)-methyl)-6-methylpyridin-2-yl)isoindolin-1-one] | < 80 | 300 to 1000
COCCNCc1cc(C)nc(N2Cc3ccc(-c4ccc(F)cc4-c4nncn4C)cc3C2=O)c1 [Compound 302, 6-(4-Fluoro-2-(4-methyl-4H-1,2,4-triazol-3-yl)phenyl)-2-(4-(((2-methoxyethyl)-amino)methyl)-6-methylpyridin-2-yl)isoindolin-1-one] | < 80 | 300 to 1000
Cc1cc(CNCC(C)(C)C)cc(N2Cc3ccc(-c4ccc(F)cc4-c4nncn4C)cc3C2=O)n1 [Compound 303] | < 80 | 300 to 1000
Cc1cc(CNCC2CC2)cc(N2Cc3ccc(-c4ccc(F)cc4-c4nccn4C)cc3C2=O)n1 [Compound 304] | < 80 | 1000 to 10000
Cc1cc(CNCC(C)C)cc(N2Cc3ccc(-c4ccc(F)cc4-c4nncn4C)cc3C2=O)n1 [Compound 305] | < 80 | < 300
Cc1cc(CNCCC2CC2)cc(N2Cc3ccc(-c4ccc(F)cc4-c4nncn4C)cc3C2=O)n1 [Compound 307, 2-(4-(((2-Cyclopropylethyl)amino)methyl)-6-methylpyridin-2-yl)-6-(4-fluoro-2-(4-methyl-4H-1,2,4-triazol-3-yl)phenyl)isoindolin-1-one] | < 80 | < 300
Cc1cc(CNCC2(CO)CCC2)cc(N2Cc3ccc(-c4ccc(F)cc4-c4nncn4C)cc3C2=O)n1 [Compound 308] | < 80 | 1000 to 10000
Cc1cc(CNCC(C)(C)O)cc(N2Cc3ccc(-c4ccc(F)cc4-c4nncn4C)cc3C2=O)n1 [Compound 309, 6-(4-Fluoro-2-(4-methyl-4H-1,2,4-triazol-3-yl)phenyl)-2-(4-(((2-hydroxy-2-methylpropyl)amino)methyl)-6-methylpyridin-2-yl)isoindolin-1-one] | < 80 | < 300
[2H]C([2H])([2H])n1cnnc1-c1cc(F)ccc1-c1ccc2c(c1)C(=O)N(c1cc(CNCC3CC3)cc(C)n1)C2 [Compound 310, 2-(4-(((Cyclopropylmethyl)amino)methyl)-6-methylpyridin-2-yl)-6-(4-fluoro-2-(4-(methyl-d3)-4H-1,2,4-triazol-3-yl)phenyl)isoindolin-1-one] | < 80 | < 300
Cc1cc(CNCC2(O)CC2)cc(N2Cc3ccc(-c4ccc(F)cc4-c4nncn4C)cc3C2=O)n1 [Compound 311] | < 80 | 1000 to 10000
Cc1cc(CN[C@@H]2CCC[C@H]2O)cc(N2Cc3ccc(-c4ccc(F)cc4-c4nncn4C)cc3C2=O)n1 [Compound 314, 6-(4-Fluoro-2-(4-methyl-4H-1,2,4-triazol-3-yl)phenyl)-2-(4-((((1R,2R)-2-hydroxycyclopentyl)amino)methyl)-6-methylpyridin-2-yl)isoindolin-1-one] | < 80 | 300 to 1000
Cc1cc(CN[C@@H](CO)C(C)C)cc(N2Cc3ccc(-c4ccc(F)cc4-c4nncn4C)cc3C2=O)n1 [Compound 315, (R)-6-(4-Fluoro-2-(4-methyl-4H-1,2,4-triazol-3-yl)phenyl)-2-(4-(((1-hydroxy-3-methylbutan-2-yl)amino)methyl)-6-methylpyridin-2-yl)isoindolin-1-one] | < 80 | < 300
Cc1cc(CNCC2(O)CCCC2)cc(N2Cc3ccc(-c4ccc(F)cc4-c4nncn4C)cc3C2=O)n1 [Compound 319, 6-(4-Fluoro-2-(4-methyl-4H-1,2,4-triazol-3-yl)phenyl)-2-(4-((((1-hydroxy-cyclopentyl)methyl)amino)methyl)-6-methylpyridin-2-yl)isoindolin-1-one] | < 80 | < 300
Cc1cc(CNCC2CC2)cc(N2Cc3ccc(-c4ccc(F)cc4-c4nncn4C4CC4)cc3C2=O)n1 [Compound 320, 6-(2-(4-Cyclopropyl-4H-1,2,4-triazol-3-yl)-4-fluorophenyl)-2-(4-(((cyclopropyl-methyl)amino)methyl)-6-methylpyridin-2-yl)isoindolin-1-one] | < 80 | 300 to 1000
CCCNCc1cc(C)nc(N2Cc3ccc(-c4ccc(F)cc4-c4nncn4C)cc3C2=O)c1 [Compound 323, 6-(4-Fluoro-2-(4-methyl-4H-1,2,4-triazol-3-yl)phenyl)-2-(6-methyl-4-((propyl-amino)methyl)pyridin-2-yl)isoindolin-1-one] | < 80 | < 300
Cc1cc(CNCC2CCO2)cc(N2Cc3ccc(-c4ccc(F)cc4-c4nncn4C)cc3C2=O)n1 (centres unmarked) [Compound 325, 6-(4-Fluoro-2-(4-methyl-4H-1,2,4-triazol-3-yl)phenyl)-2-(6-methyl-4-(((oxetan-2-ylmethyl)amino)methyl)pyridin-2-yl)isoindolin-1-one] | < 80 | 1000 to 10000
Cc1cc(CNCCC(F)(F)F)cc(N2Cc3ccc(-c4ccc(F)cc4-c4nncn4C)cc3C2=O)n1 [Compound 326, 6-(4-Fluoro-2-(4-methyl-4H-1,2,4-triazol-3-yl)phenyl)-2-(6-methyl-4-(((3,3,3-trifluoropropyl)amino)methyl)pyridin-2-yl)isoindolin-1-one] | < 80 | 1000 to 10000
Cc1cc(CNCCCC(F)(F)F)cc(N2Cc3ccc(-c4ccc(F)cc4-c4nncn4C)cc3C2=O)n1 [Compound 328, 6-(4-Fluoro-2-(4-methyl-4H-1,2,4-triazol-3-yl)phenyl)-2-(6-methyl-4-(((4,4,4-trifluorobutyl)amino)methyl)pyridin-2-yl)isoindolin-1-one] | < 80 | 300 to 1000
Cc1cc(CNCC2CCCC2)cc(N2Cc3ccc(-c4ccc(F)cc4-c4nncn4C)cc3C2=O)n1 [Compound 329, 2-(4-(((Cyclopentylmethyl)amino)methyl)-6-methylpyridin-2-yl)-6-(4-fluoro-2-(4-methyl-4H-1,2,4-triazol-3-yl)phenyl)isoindolin-1-one] | < 80 | < 300
Cc1nc(N2Cc3ccc(-c4ccc(F)cc4-c4nncn4C)cc3C2=O)cc(CNCC2CC2)c1C(F)(F)F [Compound 337, 2-(4-(((Cyclopropylmethyl)amino)methyl)-6-methyl-5-(trifluoromethyl)-pyridin-2-yl)-6-(4-fluoro-2-(4-methyl-4H-1,2,4-triazol-3-yl)phenyl)isoindolin-1-one] | < 80 | 1000 to 10000
